{"source": "paper PMC7684764", "about": "(Journal of medicinal chemistry, 2020)", "key": {"MV4–11 cells [1]": {"test_system": "MV4–11 cells", "experiment": "EC50 analysis", "assay_type": "cell-based", "conditions": "MV4–11, 50 μM"}, "[2]": {"test_system": "Salmonella typhimurium strain (with modified TA100)", "conditions": "with liver S9 fraction activation"}, "MV4–11 cells [3]": {"test_system": "MV4–11 cells", "experiment": "Western blot analysis", "assay_type": "cell-based", "conditions": "for pro-caspase3 cleavage / FLT3 and STAT5 levels: wt-p53 FLT3-ITD MV4–11, 24 h, Figure 5A; for increase in Hsp70 levels: 24 h, Figures 5A and C (MV4–11 and RS4;11)"}, "RS4;11 cells": {"test_system": "RS4;11 cells", "experiment": "Western blot analysis", "assay_type": "cell-based", "conditions": "wt-p53 wt-FLT3 RS4;11, 24 h; 13a 200 nM, panobinostat 100 nM, vorinostat 5000 nM"}, "HL60 cells": {"test_system": "HL60 cells", "experiment": "Western blot analysis", "assay_type": "cell-based", "conditions": "p53-null wt-FLT3 HL60, 24 h, Figure 5D"}, "MV4–11 cells [4]": {"test_system": "MV4–11 cells", "experiment": "Release profile by western blot after drug wash-out", "assay_type": "cell-based", "conditions": "MV4–11, 3 h treatment, up to 6 h, Figure 3B"}, "MV4–11 cells [5]": {"test_system": "MV4–11 cells", "experiment": "Combination index", "assay_type": "cell-based", "conditions": "MV4–11, 48 h, lower concentrations, Figure S8"}, "[6]": {"target": "T1, APN (CD13, microsomal aminopeptidase) (Sus scrofa, UniProt P15145)", "T1 sequence (P15145 1-963)": "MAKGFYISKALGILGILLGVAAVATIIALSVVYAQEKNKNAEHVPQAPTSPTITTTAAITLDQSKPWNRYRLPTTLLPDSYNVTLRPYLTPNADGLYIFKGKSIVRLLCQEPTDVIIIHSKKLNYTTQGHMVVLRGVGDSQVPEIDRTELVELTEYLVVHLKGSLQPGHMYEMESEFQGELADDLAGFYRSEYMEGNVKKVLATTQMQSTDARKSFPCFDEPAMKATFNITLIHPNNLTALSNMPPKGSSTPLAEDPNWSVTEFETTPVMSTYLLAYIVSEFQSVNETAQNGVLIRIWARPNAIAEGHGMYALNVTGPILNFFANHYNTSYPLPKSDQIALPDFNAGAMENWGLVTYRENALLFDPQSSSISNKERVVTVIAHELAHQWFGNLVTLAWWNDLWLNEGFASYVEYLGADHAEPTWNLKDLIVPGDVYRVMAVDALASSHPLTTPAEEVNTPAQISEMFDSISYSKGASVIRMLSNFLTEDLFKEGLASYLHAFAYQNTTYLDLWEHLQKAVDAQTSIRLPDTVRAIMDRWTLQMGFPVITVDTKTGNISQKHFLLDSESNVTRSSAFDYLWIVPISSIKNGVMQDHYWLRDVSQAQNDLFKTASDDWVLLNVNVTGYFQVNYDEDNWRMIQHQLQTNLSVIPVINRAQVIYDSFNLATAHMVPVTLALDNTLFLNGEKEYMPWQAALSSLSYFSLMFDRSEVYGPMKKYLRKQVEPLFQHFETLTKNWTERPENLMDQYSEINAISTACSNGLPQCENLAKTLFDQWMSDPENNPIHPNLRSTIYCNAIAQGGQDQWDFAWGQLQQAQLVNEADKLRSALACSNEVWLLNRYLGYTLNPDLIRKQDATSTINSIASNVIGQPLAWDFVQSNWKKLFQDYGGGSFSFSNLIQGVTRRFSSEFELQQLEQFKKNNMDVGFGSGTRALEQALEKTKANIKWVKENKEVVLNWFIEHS", "experiment": "CD13 inhibition assay", "assay_type": "biochemical, porcine", "conditions": "13a 50 μM and 10 μM, Figure S4"}, "SR cell line": {"test_system": "SR cell line", "experiment": "Western blot analysis", "assay_type": "cell-based", "conditions": "wt-p53 SR, 24 h, Figure S7"}, "NCI60 tumor cell lines": {"test_system": "NCI60 tumor cell lines", "experiment": "NCI60 tumor cell lines screen, whole panel", "assay_type": "cell-based", "conditions": "concentrations under 10 μM"}, "HDAC1": {"target": "HDAC1 (Homo sapiens, UniProt Q13547)", "sequence (Q13547 whole entry)": "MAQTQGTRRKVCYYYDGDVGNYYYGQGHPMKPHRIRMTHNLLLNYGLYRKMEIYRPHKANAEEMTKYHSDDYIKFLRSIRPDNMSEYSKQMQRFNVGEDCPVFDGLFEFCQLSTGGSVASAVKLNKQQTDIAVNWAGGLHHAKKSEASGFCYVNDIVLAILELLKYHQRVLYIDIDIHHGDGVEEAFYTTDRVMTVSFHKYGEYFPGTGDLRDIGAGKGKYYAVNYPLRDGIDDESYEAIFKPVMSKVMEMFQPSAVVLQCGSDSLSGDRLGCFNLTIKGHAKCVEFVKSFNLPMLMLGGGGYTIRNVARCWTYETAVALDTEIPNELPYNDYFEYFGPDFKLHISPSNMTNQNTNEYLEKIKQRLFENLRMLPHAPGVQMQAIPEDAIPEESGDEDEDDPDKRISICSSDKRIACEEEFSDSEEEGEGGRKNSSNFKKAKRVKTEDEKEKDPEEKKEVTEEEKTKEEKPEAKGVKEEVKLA", "experiment": "In vitro HDACs inhibition fluorescence assay", "assay_type": "biochemical", "conditions": "IC50 curves after pre-incubation of 10, 30, 60 and 90 min, Figure 3A"}, "HDAC3": {"target": "HDAC3 (Homo sapiens, UniProt O15379)", "sequence (O15379 whole entry)": "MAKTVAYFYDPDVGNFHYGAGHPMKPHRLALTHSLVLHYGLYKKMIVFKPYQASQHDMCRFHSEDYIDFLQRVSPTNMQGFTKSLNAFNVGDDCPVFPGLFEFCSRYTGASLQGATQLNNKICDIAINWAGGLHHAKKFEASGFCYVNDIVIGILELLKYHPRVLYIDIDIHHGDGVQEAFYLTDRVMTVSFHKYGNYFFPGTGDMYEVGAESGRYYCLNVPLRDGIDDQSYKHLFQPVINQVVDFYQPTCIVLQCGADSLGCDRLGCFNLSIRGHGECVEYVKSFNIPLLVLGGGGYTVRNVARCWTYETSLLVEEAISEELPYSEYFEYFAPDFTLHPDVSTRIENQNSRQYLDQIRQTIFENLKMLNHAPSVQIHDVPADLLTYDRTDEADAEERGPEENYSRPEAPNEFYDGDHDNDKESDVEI", "sequence (Q9Y618 395-489 partner limits assumed)": "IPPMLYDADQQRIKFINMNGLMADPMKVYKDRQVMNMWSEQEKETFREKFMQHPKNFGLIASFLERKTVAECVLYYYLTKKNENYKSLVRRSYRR", "experiment": "In vitro HDACs inhibition fluorescence assay", "assay_type": "biochemical"}}}
{"smiles": "Cc1[nH]c2ccccc2c1CCNCc1ccc(/C=C/C(=O)NN(CCCO)CCCO)cc1.O=C(O)C(F)(F)F", "note": "[Compound 30, (E)-N-(4-(3-(2,2-bis(3-hydroxypropyl)hydrazinyl)-3-oxoprop-1-en-1-yl)benzyl)-2-(2-methyl-1H-indol-3-yl)ethanaminium 2,2,2-trifluoroacetate]", "values": [{"measurement": "effect on cell proliferation at 50 μM", "setting": "MV4–11 cells [1]", "value": "do not affect cell proliferation"}]}
{"smiles": "Nc1ccc2cc3ccccc3cc2c1", "note": "[2-aminoanthracene]", "values": [{"measurement": "mutagenicity, Mini-Ames", "setting": "[2]", "value": "Ames positive"}]}
{"smiles": "Nc1ccccc1NC(=O)c1ccc(CNC(=O)OCc2cccnc2)cc1", "note": "[Entinostat, entinostat]", "values": [{"measurement": "pro-caspase3 cleavage", "setting": "MV4–11 cells [3]", "value": "observed"}]}
{"smiles": "Cc1[nH]c2ccccc2c1CCNCc1ccc(/C=C/C(=O)NN2CCCC2)cc1.O=C(O)C(F)(F)F", "note": "[Compound 26b, (E)-2-(2-methyl-1H-indol-3-yl)-N-(4-(3-oxo-3-(pyrrolidin-1-ylamino)prop-1-en-1-yl)benzyl)ethanaminium 2,2,2-trifluoroacetate]", "values": [{"measurement": "effect on cell proliferation at 50 μM", "setting": "MV4–11 cells [1]", "value": "do not affect cell proliferation"}]}
{"smiles": "CCCNNC(=O)/C=C/c1ccc(CNCCc2c(C)[nH]c3ccccc23)cc1.O=C(O)C(F)(F)F", "note": "[Compound 13a, (E)-2-(2-methyl-1H-indol-3-yl)-N-(4-(3-oxo-3-(2-propylhydrazinyl)prop-1-en-1-yl)benzyl)ethanaminium 2,2,2-trifluoroacetate]", "values": [{"measurement": "mutagenicity, Mini-Ames", "setting": "[2]", "value": "not mutagenic"}, {"measurement": "cleavage of pro-caspase3", "setting": "RS4;11 cells", "value": "only observed at high dose"}, {"measurement": "pro-caspase3 cleavage", "setting": "HL60 cells", "value": "not cleaved"}, {"measurement": "acetylation of tubulin", "setting": "MV4–11 cells [4]", "value": "does not increase the acetylation of tubulin"}, {"measurement": "histone acetylation after removal of drug", "setting": "MV4–11 cells [4]", "value": "does not decrease within 6 h"}, {"measurement": "interaction of 13a with 17-AAG in anti-proliferation activity", "setting": "MV4–11 cells [5]", "value": "antagonized"}, {"measurement": "inhibition of APN", "setting": "[6]", "value": "does not show any inhibition"}, {"measurement": "pro-caspase3 cleavage", "setting": "SR cell line", "value": "does not cleave"}, {"measurement": "increase in Hsp70 levels", "setting": "MV4–11 cells [3]", "value": "not observed"}, {"measurement": "FLT3 and STAT5 levels", "setting": "MV4–11 cells [3]", "value": "down-regulate"}, {"measurement": "pro-caspase3 cleavage", "setting": "MV4–11 cells [3]", "value": "observed"}, {"measurement": "number of the 60 cell lines with lethality under 10 μM", "setting": "NCI60 tumor cell lines", "value": 10}]}
{"smiles": "CCCNNC(=O)c1ccc(CNC(=O)/C=C/c2ccccc2)cc1", "note": "[LP411]", "values": [{"measurement": "FLT3 and STAT5 levels", "setting": "MV4–11 cells [3]", "value": "down-regulate"}, {"measurement": "pro-caspase3 cleavage", "setting": "MV4–11 cells [3]", "value": "observed"}]}
{"smiles": "Cc1[nH]c2ccccc2c1CCNCc1ccc(/C=C/C(=O)NO)cc1", "note": "[Panobinostat]", "values": [{"measurement": "mutagenicity, Mini-Ames", "setting": "[2]", "value": "Ames positive"}, {"measurement": "cleavage of pro-caspase3", "setting": "RS4;11 cells", "value": "observed"}, {"measurement": "acetylation of tubulin", "setting": "MV4–11 cells [4]", "value": "completely disappears after 30 min"}, {"measurement": "histone acetylation after removal of drug", "setting": "MV4–11 cells [4]", "value": "begins to decrease after 1 h"}, {"measurement": "on-kinetics, HDAC1", "setting": "HDAC1", "value": "fast-on kinetics"}, {"measurement": "on-kinetics, HDAC3", "setting": "HDAC3", "value": "fast-on kinetics"}, {"measurement": "increase in Hsp70 levels", "setting": "MV4–11 cells [3]", "value": "observed"}, {"measurement": "pro-caspase3 cleavage", "setting": "MV4–11 cells [3]", "value": "observed"}, {"measurement": "number of the 60 cell lines with lethality under 10 μM", "setting": "NCI60 tumor cell lines", "value": 18}]}
{"smiles": "Cc1[nH]c2ccccc2c1CCNCc1ccc(/C=C/C(=O)NN(C)C)cc1.O=C(O)C(F)(F)F", "note": "[Compound 26a, (E)-N-(4-(3-(2,2-dimethylhydrazinyl)-3-oxoprop-1-en-1-yl)benzyl)-2-(2-methyl-1H-indol-3-yl)ethanaminium 2,2,2-trifluoroacetate]", "values": [{"measurement": "effect on cell proliferation at 50 μM", "setting": "MV4–11 cells [1]", "value": "do not affect cell proliferation"}]}
{"smiles": "Cc1[nH]c2ccccc2c1CCNCc1ccc(/C=C/C(=O)NN2CCCCC2)cc1.O=C(O)C(F)(F)F", "note": "[Compound 26c, (E)-2-(2-methyl-1H-indol-3-yl)-N-(4-(3-oxo-3-(piperidin-1-ylamino)prop-1-en-1-yl)benzyl)ethanaminium 2,2,2-trifluoroacetate]", "values": [{"measurement": "effect on cell proliferation at 50 μM", "setting": "MV4–11 cells [1]", "value": "do not affect cell proliferation"}]}
